This passage reports LC50 results from US20260198495A1, “BINARY INSECTICIDE COMPOSITION AND USE THEREOF” (SHENYANG SINOCHEM AGROCHEMICALS R & D CO., LTD., priority 2022, published 2026).

Holding throughout (type): in vivo
In test [1] the test system is 2nd-instar larvae of Chilo suppressalis (Walker). In words: whole plant or invertebrate. The following applies: Chilo suppressalis; resistant 2nd-instar larvae, rice stalk spraying, 72 h; A = compound I-72, B = spinetoram; read-out: LC50. As for the experimental part: In addition, a blank control was set up. The number of dead and live insects was investigated 72 hours later.

Test [2] concerns adult Tetranychus cinnabarinus (Boisduval). In words: Joint toxicity of I-72 + fenpropathrin, Example 39, Table 39. The following applies: A = compound I-72, B = fenpropathrin, potted-seedling spraying, 72 hours, read-out: LC50. As for the experimental part: Test target: adult Tetranychus cinnabarinus (Boisduval), a sensitive strain reared indoors.
(§1) Preparation of the pesticide solution: according to different test requirements, the test samples were accurately weighed respectively with an electronic analytical balance. The technical pesticides were dissolved in acetone, and then diluted with 0.1% Tween 80 water into a series of pesticide solutions with a certain concentration gradient according to the experimental design dosage.
Experimental method: the activity of the mixture against the adult Tetranychus cinnabarinus (Boisduval) was determined by adopting the potted-seedling spraying method. First, the adult Tetranychus cinnabarinus of uniform size were transferred onto the leaves of kidney bean seedlings at the stage when the first pair of true leaves was fully expanded. After the adult mites had stabilized, the base number was counted. Then, the uniform spraying was performed with the pesticide solution in the order from low to high dose according to the experimental design, with 1.5 mL for each seedling and 3 replicates for each treatment. […]
The treated test materials were placed in an observation room, and the temperature, humidity and illumination of the observation room could be adjusted as needed. […] Then, the co-toxicity coefficient of each ratio was calculated using the Sun Y-P method to evaluate the mixing effect, as in Example 1.

In test [3] the test system is 3rd-instar larvae of Spodoptera frugiperda. In words: Joint toxicity of I-72 + indoxacarb, corn leaf dipping, Example 3, Table 3. The following applies: Spodoptera frugiperda, foliar, 72 h, A = compound I-72, B = indoxacarb, read-out: LC50. The source says: Test subject: 3rd-instar larvae of Spodoptera frugiperda, a sensitive strain reared indoors.
Experimental method: the dipping method was adopted. The corn leaves cultivated in the greenhouse were taken, cut into leaf segments of 5 cm long, dipped in the prepared pesticide solution for 10 s, and then cut into small pieces of 1.5 cm×1.5 cm after natural air-drying in the shade. These pieces were placed in a 24-well culture plate, and the standard test insects were introduced, with 48 insects for each treatment. The treated test insects were placed in an observation room under certain conditions. The reaction of the test insects was regularly observed, and the number of dead and live insects was investigated 72 h later.
The test conditions, the preparation method of the pesticide solution, and the evaluation method (Sun Y-P) for the joint action type of the mixture were the same as those in Example 1.

The test system of the next test is adult Phyllotreta spp. In words: Joint toxicity of I-72 + organophosphorus insecticides, cabbage seedling spraying, Example 19, Table 19. The following applies: adults, cabbage seedling spraying, 72 h; A = compound I-72, B = acephate; read-out: LC50. The method, then:
Test target: adult Phyllotreta spp., a sensitive strain reared indoors.
as §1
Experimental method: first, fresh cabbage seedlings cultivated in the greenhouse were selected and evenly sprayed with the pesticide solution in the order from low dosage to high dosage according to the experimental design. After natural air-drying in the shade, they were covered with a glass cover, and uniform and healthy test insects were introduced, with 10 insects for each treatment and 3 replicates for each treatment. In addition, a blank control was set up.
The treated test materials were placed in an observation room, and the temperature, humidity and illumination of the observation room could be adjusted as needed. The number of dead and live insects was investigated 72 hours later. The corrected mortality rate was calculated using the Abbott's formula, and statistical analysis was performed with the DPS data processing software to obtain the toxicity regression equation, LC50 value and 95% confidence limit of each single test pesticide and each mixture of different ratios. Then, the co-toxicity coefficient of each ratio was calculated using the Sun Y-P method to evaluate the mixing effect (the same as in Example 1).

Test [4] concerns Aphis gossypii Glover nymphs. In words: Joint toxicity of I-72 + nitenpyram, Example 67, Table 67. Conditions: A = compound I-72, B = nitenpyram, cotton leaf spraying, 48 hours, read-out: LC50. The method, then: Test target: Aphis gossypii Glover nymphs, a sensitive strain reared indoors.
as §1
Experimental method: first, cotton leaves with uniform and consistent Aphis gossypii were selected, with about 30-40 insects on each leaf. Then, they were evenly sprayed with the pesticide solution in the order from low dosage to high dosage according to the experimental design, with 1.5 mL for each leaf and 3 replicates for each treatment. In addition, a blank control was set up.
The treated test materials were placed in an observation room, and the temperature, humidity and illumination of the observation room could be adjusted as needed. The number of dead and live insects was investigated 48 hours later. […] Then, the co-toxicity coefficient of each ratio was calculated using the Sun Y-P method to evaluate the mixing effect (the same as in Example 1).

Test [5] has as its system 2nd-instar nymphs of Frankliniella occidentalis Pergande. The test is described as follows: Joint toxicity of I-72 + spinetoram, leaf spraying, Example 11, Table 11. Conditions: Frankliniella occidentalis, kidney bean leaf spraying, 48 h, A = compound I-72, B = spinetoram, read-out: LC50. The source says: Test subject: 2nd-instar nymphs of Frankliniella occidentalis Pergande, a sensitive strain reared indoors.
Experimental method: the spraying method was adopted. The kidney bean leaves cultivated in the greenhouse were selected, and the petioles were wrapped with moist degreased cotton and sealing film. They were evenly sprayed with the pesticide solution in the order from low dosage to high dosage according to the experimental design, placed in a 6-cm-diameter Petri dish with filter paper. After natural air-drying in the shade, the test insects were introduced, with 20 insects for each treatment and 3 replicates. In addition, a blank control was set up. The number of dead and live insects was investigated 48 hours later. The corrected mortality rate was calculated using the Abbott's formula, and the DPS data processing software was used for statistical analysis to calculate the toxicities (LC50 values) of the single test pesticides and the mixtures under the test ratios.
The test conditions, the preparation of the pesticide solution and the evaluation method were the same as those in Example 1.

Test [6] has as its system 3rd-instar larvae of Plutella xylostella. In words: Joint toxicity of I-72 + chlorpyrifos, leaf-disk dipping, Example 16, Table 16. Conditions: 3rd-instar larvae, cabbage leaf-disk dipping, 72 h, A = compound I-72, B = chlorpyrifos, read-out: LC50. The method, then: Test target: 3rd-instar larvae of Plutella xylostella.
as §1
Experimental method: first, fresh cabbage leaves cultivated in the greenhouse were selected. The cabbage leaves were made into circular leaf disks with a diameter of 3 cm using a puncher and dipped in the prepared pesticide solution for 10 s in the order from low dosage to high dosage according to the experimental design. After natural air-drying in the shade, they were placed in a 9-cm-diameter Petri dish with filter paper, and uniform and healthy test insects were introduced, with 10 insects for each treatment and 3 replicates for each treatment. In addition, a blank control was set up.
The treated test materials were placed in an observation room, and the temperature, humidity and illumination of the observation room could be adjusted as needed. […] Then, the co-toxicity coefficient of each ratio was calculated using the Sun Y-P method to evaluate the mixing effect (the same as in Example 1).

Converted amounts (≈) assume the structure as drawn.

In general, LC50 refers to the concentration lethal to half of the exposed cells or organisms.

For `CN(C(=O)c1ccc2c(c1)OC(F)(F)O2)c1cccc(C(=O)Nc2c(Br)cc(C(F)(C(F)(F)F)C(F)(F)F)cc2OC(F)F)c1F` [Compound I-72], the LC50 in test [1] came out at 0.811 µg/mL (≈ 1.09 µM); in test [2] it was 34.1 µg/mL; in test [3] it was 0.0737 µg/mL; in the test with adult Phyllotreta spp., 3.01 µg/mL; in test [4], 3 µg/mL; in test [5], 1.94 µg/mL. The LC50 in test [6] was 0.09 µg/mL.
